The values that follow come from patent publication US20100317607A1, “USE OF COMPOUNDS FOR PREPARING ANTI-TUBERCULOSIS AGENTS” (INFECTIOUS DISEASE RESEARCH INSTITUTE, priority 2007, published 2010).

Converted amounts (≈) assume the structure as drawn. Where a name gives a salt, the structure may show the parent alone.

This test relates to H37Rv strain of M. tuberculosis. Briefly: Alamar Blue Susceptibility Test (MABA). The settings on record: H37Rv strain of M. tuberculosis, Alamar Blue; for MIC: Mycobacterium tuberculosis, read-out: MABA (TB growth inhibition, colourimetric assay). The test is classed as cell-based.

On to `Nc1nc(N)c2ccccc2n1` [Comparative compound 2, Quinazoline-2,4-diamine, reference compound], for which the “MABA (TB growth inhibition, colourimetric assay)” value is given as “−”. On to `O=[N+]([O-])c1ccc(NCCNc2nc(N3CCOCC3)nc3ccccc23)cc1` [Compound 7, N^1-(2-Morpholinoquinazolin-4-yl)-N^2-(4-nitrophenyl)ethane-1,2-diamine], for which the MIC lay within 50 to 128 µM (≈ 19.7 to 50.5 µg/mL).

Take `CN1CCN(c2nc(NCCNc3ccc([N+](=O)[O-])cc3)c3ccccc3n2)CC1` [Compound 11, N^1-(2-(4-Methylpiperazin-1-yl)quinazolin-4-yl)-N^2-(4-nitrophenyl)ethane-1,2-diamine]: the MIC was 50 to 128 µM (≈ 20.4 to 52.2 µg/mL). On the same count and under the same terms, as for `c1ccc(CNc2nc(Nc3ccccc3)nc3ccccc23)cc1` [Compound 23, N^4-Benzyl-N^2-phenylquinazoline-2,4-diamine], the figure is 10 to 50 µM (≈ 3.26 to 16.3 µg/mL); as for `CCN(CC)c1nc(NCc2ccccc2)c2ccccc2n1` [Compound 25, N^4-Benzyl-N^2,N^2-diethylquinazoline-2,4-diamine], 10 to 50 µM (≈ 3.06 to 15.3 µg/mL); as for `CCS(=O)(=O)N1CCN(c2nc(NCc3ccccc3)c3ccccc3n2)CC1` [Compound 26, N-Benzyl-2-(4-(ethylsulfonyl)piperazin-1-yl)quinazolin-4-amine], 50 to 128 µM (≈ 20.6 to 52.7 µg/mL). The same measure, in the same setting: with `CCOC(=O)CN1CCN(c2nc(NCc3ccccc3)c3ccccc3n2)CC1` [Compound 27, Ethyl 2-(4-(4-(benzylamino)quinazolin-2-yl)piperazin-1-yl)acetate] the figure was 50 to 128 µM (≈ 20.3 to 51.9 µg/mL); with `Cc1ccc(CNc2nc(NCc3ccccc3)c3ccccc3n2)cc1` [Compound 28, N^4-Benzyl-N^2-(4-methylbenzyl)quinazoline-2,4-diamine], 10 to 50 µM (≈ 3.54 to 17.7 µg/mL). For `CN(Cc1ccccc1)c1nc(NCc2ccccc2)c2ccccc2n1` [Compound 29, N^2,N^4-Dibenzyl-N^2-methylquinazoline-2,4-diamine], the MIC was 10 to 50 µM (≈ 3.54 to 17.7 µg/mL).

With `CC(C)(C)OC(=O)N1CCN(c2nc(NCc3ccccc3)c3ccccc3n2)CC1` [Compound 31, tert-Butyl 4-(4-(benzylamino)quinazolin-2-yl)piperazine-1-carboxylate], the MIC is 10 to 50 µM (≈ 4.2 to 21 µg/mL). Still for that read-out and setting: as for `C[C@H](Nc1nc(N2CCCCC2)nc2ccccc12)c1ccccc1` [Compound 32, (S)—N-(1-Phenylethyl)-2-(piperidin-1-yl)quinazolin-4-amine], the figure is 10 to 50 µM (≈ 3.32 to 16.6 µg/mL). With `c1ccc(CNc2nc(N3CCCCC3)nc3ccccc23)nc1` [Compound 46, 2-(Piperidin-1-yl)-N-(pyridin-2-ylmethyl)quinazolin-4-amine], the MIC lay within 50 to 128 µM (≈ 16 to 40.9 µg/mL). With `c1cncc(CNc2nc(N3CCCCC3)nc3ccccc23)c1` [Compound 47, 2-(Piperidin-1-yl)-N-(pyridin-3-ylmethyl)quinazolin-4-amine], the MIC was in the range of 50 to 128 µM (≈ 16 to 40.9 µg/mL). In the case of `c1ccc(C(Nc2nc(N3CCCCC3)nc3ccccc23)c2ccccc2)cc1` [Compound 50, N-Benzhydryl-2-(piperidin-1-yl)quinazolin-4-amine], the MIC is 10 to 50 µM (≈ 3.95 to 19.7 µg/mL). `c1ccc(CNc2nc(N3CCNCC3)nc3ccccc23)cc1` [Compound 51, N-Benzyl-2-(piperazin-1-yl)quinazolin-4-amine]: the MIC lay in the range of 50 to 128 µM (≈ 16 to 40.9 µg/mL).

On to `c1ccc(CNc2nc(N3CCCOCC3)nc3ccccc23)cc1` [Compound 52, N-Benzyl-2-(1,4-oxazepan-4-yl)quinazolin-4-amine], for which the MIC lay in the range of 10 to 50 µM (≈ 3.34 to 16.7 µg/mL). The same measure, in the same setting: with `CC(C)(C)OC(=O)N1CCCN(c2nc(NCc3ccccc3)c3ccccc3n2)CC1` [Compound 55, tert-Butyl 4-(4-(benzylamino)quinazolin-2-yl)-1,4-diazepane-1-carboxylate] the figure was 10 to 50 µM (≈ 4.34 to 21.7 µg/mL); with `CC(C)C(=O)N1CCN(c2nc(NCc3ccccc3)c3ccccc3n2)CC1` [Compound 56, 1-(4-(4-(Benzylamino)quinazolin-2-yl)piperazin-1-yl)-2-methylpropan-1-one], 50 to 128 µM (≈ 19.5 to 49.9 µg/mL); with `CC(C)(C)C(=O)N1CCN(c2nc(NCc3ccccc3)c3ccccc3n2)CC1` [Compound 57, 1-(4-(4-(Benzylamino)quinazolin-2-yl)piperazin-1-yl)-2,2-dimethylpropan-1-one], 10 to 50 µM (≈ 4.04 to 20.2 µg/mL).

As to `O=C(c1ccccc1)N1CCN(c2nc(NCc3ccccc3)c3ccccc3n2)CC1` [Compound 58, 1-(4-(4-(Benzylamino)quinazolin-2-yl)piperazin-1-yl)(phenyl)methanone], the MIC was 10 to 50 µM (≈ 4.24 to 21.2 µg/mL).

Take `c1ccc2c(NC34CC5CC(CC(C5)C3)C4)nc(N3CCOCC3)nc2c1` [Compound 61, N-(1′-Adamantyl)-2-(morpholino)quinazolin-4-amine]: the “MABA (TB growth inhibition, colourimetric assay)” value was “+++ (10-50 μM=+++)”.

Regarding `CCCNc1nc(NCc2ccccc2)c2ccccc2n1` [Compound 67, N^4-Benzyl-N^2-propylquinazoline-2,4-diamine], the MIC was 10 to 50 µM (≈ 2.92 to 14.6 µg/mL). `COc1cc2nc(N3CCCCC3)nc(NCc3ccccc3)c2cc1OC` [Compound 70, N-Benzyl-6,7-dimethoxy-2-(piperidin-1-yl)quinazolin-4-amine]: the MIC was 10 to 50 µM (≈ 3.78 to 18.9 µg/mL).

For the molecule `Clc1ccc2nc(N3CCCCC3)nc(NCc3ccccc3)c2c1` [Compound 71, N-Benzyl-6-chloro-2-(piperidin-1-yl)quinazolin-4-amine], the MIC lay within 10 to 50 µM (≈ 3.53 to 17.6 µg/mL). On the same count and under the same terms, with `c1ccc(Nc2nc(N3CCCCC3)nc3ccccc23)cc1` [Compound 72, N-Phenyl-2-(piperidin-1-yl)quinazolin-4-amine hydrochloride] the figure was 50 to 128 µM; with `O=C(Nc1nc(NCc2ccccc2)c2ccccc2n1)c1ccccc1` [Compound 73, N-(4-(Benzylamino)quinazolin-2-yl)benzamide], 50 to 128 µM (≈ 17.7 to 45.4 µg/mL).

Regarding `Clc1ccc(CNc2nc(N3CCOCC3)nc3ccccc23)cc1` [Compound 74, N-(4-Chlorobenzyl)-2-morpholinoquinazolin-4-amine], the MIC lay in the range of 10 to 50 µM (≈ 3.55 to 17.7 µg/mL). On to `Clc1ccc(CNc2nc(N3CCCC3)nc3ccccc23)cc1` [Compound 75, N-(4-Chlorobenzyl)-2-(pyrrolidin-1-yl)quinazolin-4-amine], for which the MIC was in the range of 10 to 50 µM (≈ 3.39 to 16.9 µg/mL). Still for that read-out and setting: as for `FC(F)(F)c1ccc(CNc2nc(N3CCOCC3)nc3ccccc23)cc1` [Compound 77, 2-Morpholino-N-(4-(trifluoromethyl)benzyl)quinazolin-4-amine], the figure is 10 to 50 µM (≈ 3.88 to 19.4 µg/mL); as for `COc1ccccc1CNc1nc(N2CCCCC2)nc2ccccc12` [Compound 81, N-(2-Methoxybenzyl)-2-(piperidin-1-yl)quinazolin-4-amine hydrochloride], 10 to 50 µM; as for `COc1cccc(CNc2nc(N3CCCCC3)nc3ccccc23)c1` [Compound 82, N-(3-Methoxybenzyl)-2-(piperidin-1-yl)quinazolin-4-amine hydrochloride], 10 to 50 µM. Still for that read-out and setting: as for `c1ccc2c(c1)CN(c1nc(N3CCCCC3)nc3ccccc13)C2` [Compound 85, 4-(Isoindolin-2-yl)-2-(piperidin-1-yl)quinazoline hydrochloride], the figure is 10 to 50 µM; as for `c1ccc2c(c1)CC(Nc1nc(N3CCCCC3)nc3ccccc13)C2` [Compound 86, N-(2,3-Dihydro-1H-inden-2-yl)-2-(piperidin-1-yl)quinazolin-4-amine hydrochloride], 10 to 50 µM; as for `Cc1ccc(CCNc2nc(N3CCCCC3)nc3ccccc23)cc1` [Compound 87, N-(4-Methylphenethyl)-2-(piperidin-1-yl)quinazolin-4-amine hydrochloride], 10 to 50 µM. For the molecule `c1ccc(N2CCN(c3nc(N4CCCCC4)nc4ccccc34)CC2)cc1` [Compound 88, 4-(4-Phenylpiperazin-1-yl)-2-(piperidin-1-yl)quinazoline], the MIC was 50 to 128 µM (≈ 18.7 to 47.8 µg/mL).

As to `Clc1ccc(N2CCN(c3nc(N4CCCCC4)nc4ccccc34)CC2)cc1` [Compound 89, 4-(4-(4-Chlorophenyl)piperazin-1-yl)-2-(piperidin-1-yl)quinazoline], the MIC lay within 10 to 50 µM (≈ 4.08 to 20.4 µg/mL). The same measure, in the same setting: as for `c1ccc(C2CCN(c3nc(N4CCCCC4)nc4ccccc34)CC2)cc1` [Compound 90, 4-(4-Phenylpiperidin-1-yl)-2-(piperidin-1-yl)quinazoline], the figure is 10 to 50 µM (≈ 3.73 to 18.6 µg/mL); as for `CC(C)(Nc1nc(N2CCCC2)nc2ccccc12)c1ccccc1` [Compound 91, N-(2-Phenylpropan-2-yl)-2-(pyrrolidin-1-yl)quinazolin-4-amine], 10 to 50 µM (≈ 3.32 to 16.6 µg/mL); as for `CS(=O)(=O)c1ccc(CNc2nc(N3CCCCC3)nc3ccccc23)cc1` [Compound 94, N-(4-(Methylsulfonyl)benzyl)-2-(piperidin-1-yl)quinazolin-4-amine], 10 to 50 µM (≈ 3.97 to 19.8 µg/mL). Regarding `c1ccc(CCCNc2nc(N3CCCCC3)nc3ccccc23)cc1` [Compound 95, N-(3-Phenylpropyl)-2-(piperidin-1-yl)quinazolin-4-amine], the MIC is less than 10 µM. Still for that read-out and setting: with `COc1ccc([C@@H](C)Nc2nc(N3CCCCC3)nc3ccccc23)cc1` [Compound 97, (R)—N-(1-(4-Methoxyphenyl)ethyl)-2-(piperidin-1-yl)quinazolin-4-amine] the figure was 10 to 50 µM (≈ 3.62 to 18.1 µg/mL); with `Cc1ccc([C@@H](C)Nc2nc(N3CCCCC3)nc3ccccc23)cc1` [Compound 101, (R)-2-(Piperidin-1-yl)-N-(1-p-tolylethyl)quinazolin-4-amine], 10 to 50 µM (≈ 3.46 to 17.3 µg/mL). Regarding `Cc1ccc(C(C)(C)Nc2nc(N3CCCCC3)nc3ccccc23)cc1` [Compound 102, 2-(Piperidin-1-yl)-N-(2-p-tolylpropan-2-yl)quinazolin-4-amine], the MIC was in the range of 10 to 50 µM (≈ 3.61 to 18 µg/mL). On the same count and under the same terms, as for `Cc1ccc(C(C)(C)Nc2nc(N3CCCC3)nc3ccccc23)cc1` [Compound 103, 2-(Pyrrolidin-1-yl)-N-(2-p-tolylpropan-2-yl)quinazolin-4-amine], the figure is 10 to 50 µM (≈ 3.46 to 17.3 µg/mL); as for `Cc1ccccc1CNc1nc(N2CCCCC2)nc2ccccc12` [Compound 104, N-(2-Methylbenzyl)-2-(piperidin-1-yl)quinazolin-4-amine hydrochloride], 10 to 50 µM. On the same count and under the same terms, with `Clc1cccc2nc(N3CCCCC3)nc(NCc3ccccc3)c12` [Compound 107, N-Benzyl-5-chloro-2-(piperidin-1-yl)quinazolin-4-amine] the figure was 10 to 50 µM (≈ 3.53 to 17.6 µg/mL); with `CC(C)(Cc1ccc(F)cc1)Nc1nc(N2CCCCC2)nc2ccccc12` [Compound 108, N-(1-(4-Fluorophenyl)-2-methylpropan-2-yl)-2-(piperidin-1-yl)quinazolin-4-amine], 10 to 50 µM (≈ 3.78 to 18.9 µg/mL).
